Assay [1] relates to Streptococcus. The assay is described as follows: Group A Streptococcus viability loss, dose response, counter-screen for streptokinase expression inhibitor project, luminescence, BacTiterGlo (AID 1915).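 Also: potency for reduction of bacterial viability or growth.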 It counts as functional, organism-based.
The next assay deals with T1, Streptokinase A (Streptococcus pyogenes serotype M1, UniProt P10520).
T1 sequence (P10520 whole entry): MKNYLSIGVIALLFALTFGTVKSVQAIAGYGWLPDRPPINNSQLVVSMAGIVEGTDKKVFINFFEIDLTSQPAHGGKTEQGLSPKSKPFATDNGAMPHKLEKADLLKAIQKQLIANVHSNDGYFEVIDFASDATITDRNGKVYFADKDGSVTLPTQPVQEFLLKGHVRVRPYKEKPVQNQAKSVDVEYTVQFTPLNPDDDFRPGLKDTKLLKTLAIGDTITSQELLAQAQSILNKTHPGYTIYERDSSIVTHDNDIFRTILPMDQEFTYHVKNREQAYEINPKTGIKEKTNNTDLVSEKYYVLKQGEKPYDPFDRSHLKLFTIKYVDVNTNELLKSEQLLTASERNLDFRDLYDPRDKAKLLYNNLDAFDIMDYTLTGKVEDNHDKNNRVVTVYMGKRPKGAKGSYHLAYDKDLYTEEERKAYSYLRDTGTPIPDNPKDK
Put plainly: S. pyogenes streptokinase expression inhibitors, potency, dose response, plasminogen activation absorbance, OD405 (AID 1914).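 Also: secreted streptokinase activity via plasminogen activation per viability signal from cell pellet.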 It counts as functional, Streptococcus pyogenes M1 GAS.

The test system of assay [2] is Streptococcus. Put plainly: Luminescence Microorganism-Based Dose Response Follow up to Identify Compounds Cytotoxic to Streptococcus. [Related pubchem assays: 1677 (Project Summary), 1915, 1914, 1902 (Retest at Dose), 1900 (Counter Screen), 1662 (Primary HTS)]. The format is functional, organism-based.
Assay [3] has as its system Streptococcus sp. 'group A'. Put plainly: growth inhibition of control SK(-) GAS strain, dose response, counter-screen for streptokinase expression inhibitor project, luminescence, kanamycin, BacTiterGlo, confirmation (AID 1900). It counts as functional, organism-based.
Assay [4] can be described thus: polyadenylation inhibitors in yeast reporter, dose response, luminescence, S. cerevisiae SKY197-pL101 (AID 2525). It counts as functional, cell-based.
A further assay has as its target Insulin-degrading enzyme (Homo sapiens, UniProt P14735). The assay is described as follows: Dose Response: Fluorescence polarization-based cell-based high throughput dose response assay for inhibitors of insulin-degrading enzyme (IDE). [Related pubchem assays: 434962 (Primary screen (IDE inhibitors in singlicate)), 449730 (Counterscreen (Cytotoxicity in triplicate)), 435028 (Confirmation (IDE inhibitors in triplicate)), 434984 (Summary …. The format is functional.

The target of assay [5] is T2, Rac GTPase-activating protein 1 (Homo sapiens, UniProt Q9H0H5).
T2 sequence (Q9H0H5 whole entry): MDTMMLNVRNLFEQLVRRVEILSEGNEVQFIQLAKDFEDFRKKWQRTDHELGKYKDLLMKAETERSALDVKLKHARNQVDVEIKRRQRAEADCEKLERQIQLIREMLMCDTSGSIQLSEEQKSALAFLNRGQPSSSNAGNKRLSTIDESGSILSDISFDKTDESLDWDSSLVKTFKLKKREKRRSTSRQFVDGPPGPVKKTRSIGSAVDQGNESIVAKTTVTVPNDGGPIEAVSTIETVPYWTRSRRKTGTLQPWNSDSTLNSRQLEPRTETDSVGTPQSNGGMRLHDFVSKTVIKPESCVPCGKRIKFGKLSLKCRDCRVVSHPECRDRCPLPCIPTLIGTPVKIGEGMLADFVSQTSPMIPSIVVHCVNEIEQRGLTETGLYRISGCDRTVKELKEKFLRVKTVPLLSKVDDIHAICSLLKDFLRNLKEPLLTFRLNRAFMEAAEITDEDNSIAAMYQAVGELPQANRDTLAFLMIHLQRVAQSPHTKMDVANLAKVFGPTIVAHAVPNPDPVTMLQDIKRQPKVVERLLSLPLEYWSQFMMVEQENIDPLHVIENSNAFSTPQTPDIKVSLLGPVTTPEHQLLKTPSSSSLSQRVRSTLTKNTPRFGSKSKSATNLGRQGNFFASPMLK
Put plainly: MgcRacGAP GTPase-activating activity inhibitors, confirmation, biochemical, ADP Hunter fluorescence, primary and confirmatory (AID 624330). It counts as functional.

A short description of assay [6]: HeLa cell cytotoxicity, dose response, cytotoxicity control for MgcRacGAP inhibitor project (AID 624300). The format is functional.
Assay [7] in a line: Counterscreen for IDE inhibitors: Luminescence-based cell-based high throughput dose response assay to identify compounds that are cytotoxic to HEK cells. [Related pubchem assays: 434962 (Primary screen (IDE inhibitors in singlicate)), 449730 (Counterscreen (Cytotoxicity in triplicate)), 435028 (Confirmation (IDE inhibitors in triplicate)) …. It counts as functional. Particulars: HEK293.

SMILES strings stand for the structures. The source made the active and inactive calls.

Sequence of Insulin-degrading enzyme (P14735 whole entry): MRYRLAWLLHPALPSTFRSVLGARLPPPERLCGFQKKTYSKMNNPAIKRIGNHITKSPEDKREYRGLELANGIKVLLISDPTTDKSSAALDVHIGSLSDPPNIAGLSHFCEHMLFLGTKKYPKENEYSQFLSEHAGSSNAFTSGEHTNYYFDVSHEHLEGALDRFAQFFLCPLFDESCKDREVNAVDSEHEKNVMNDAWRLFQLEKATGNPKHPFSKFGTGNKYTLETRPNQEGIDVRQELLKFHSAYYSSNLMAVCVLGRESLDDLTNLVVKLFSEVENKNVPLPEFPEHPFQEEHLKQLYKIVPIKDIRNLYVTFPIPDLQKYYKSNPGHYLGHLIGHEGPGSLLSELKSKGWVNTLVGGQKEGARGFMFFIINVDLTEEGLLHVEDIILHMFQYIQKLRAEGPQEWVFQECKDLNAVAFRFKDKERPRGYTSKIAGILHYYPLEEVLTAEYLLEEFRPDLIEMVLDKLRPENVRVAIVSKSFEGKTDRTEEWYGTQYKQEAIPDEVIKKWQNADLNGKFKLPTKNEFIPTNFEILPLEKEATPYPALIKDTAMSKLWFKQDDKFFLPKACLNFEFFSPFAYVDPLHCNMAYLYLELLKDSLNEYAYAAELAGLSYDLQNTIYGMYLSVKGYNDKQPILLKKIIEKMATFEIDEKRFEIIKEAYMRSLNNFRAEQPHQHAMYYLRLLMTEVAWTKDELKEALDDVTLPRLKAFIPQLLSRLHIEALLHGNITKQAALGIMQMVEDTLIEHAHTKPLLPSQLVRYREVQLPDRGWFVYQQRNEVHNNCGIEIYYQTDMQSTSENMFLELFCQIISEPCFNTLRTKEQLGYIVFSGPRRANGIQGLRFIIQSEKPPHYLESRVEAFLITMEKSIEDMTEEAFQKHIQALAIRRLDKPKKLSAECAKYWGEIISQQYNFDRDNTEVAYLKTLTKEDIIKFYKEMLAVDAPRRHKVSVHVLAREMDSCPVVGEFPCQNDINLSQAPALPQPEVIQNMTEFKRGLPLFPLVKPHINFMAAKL

As for `Cc1ccc(C(=O)n2c3ccccc3c3ccccc32)cc1`, the EC50 in the assay on Streptococcus [1] is > 150 µM (not active); on Streptokinase A, 6.45 µM (active); in the assay with Streptococcus [2], > 500 µM (not active); in assay [3], 21.6 µM (active).

Take `Cc1ccc2[nH]c(/C(C#N)=C/c3ccc([N+](=O)[O-])o3)nc2c1`: the concentration giving a half-maximal response (EC50) in [4] was 4.03 µM (active).

In the case of `Cc1cc(/C=C2\SC(=S)NC2=O)cc(C)c1O`, the results for the IC50 (against Insulin-degrading enzyme; in [5]; in [7]) were > 56 µM (not active), 25.8 µM (active) and > 55.7 µM (not active), respectively. In addition, the CC50 in assay [6] is 100 µM (active).

The record behind these values is ChEMBL document CHEMBL1201862, “PubChem BioAssay data set” (2004).
